Nine molecules from ChEMBL document CHEMBL5338735, “Designing Smaller, Synthetic, Functional Mimetics of Sulfated Glycosaminoglycans as Allosteric Modulators of Coagulation Factors” (J Med Chem, 2023) can be followed below.

One may read the IC50 as the concentration that gives 50% inhibition.

Some results are limits rather than exact numbers.

The target of experiment [1] is T1, Coagulation factor XI (Homo sapiens, UniProt P03951). As to the kind of experiment: Inhibition of human Factor XIa assessed as substrate hydrolysis measured by measuring residual activity after 10 mins by chromogenic substrate hydrolysis assay relative to control.
T1 sequence (P03951 19-387 limits assumed): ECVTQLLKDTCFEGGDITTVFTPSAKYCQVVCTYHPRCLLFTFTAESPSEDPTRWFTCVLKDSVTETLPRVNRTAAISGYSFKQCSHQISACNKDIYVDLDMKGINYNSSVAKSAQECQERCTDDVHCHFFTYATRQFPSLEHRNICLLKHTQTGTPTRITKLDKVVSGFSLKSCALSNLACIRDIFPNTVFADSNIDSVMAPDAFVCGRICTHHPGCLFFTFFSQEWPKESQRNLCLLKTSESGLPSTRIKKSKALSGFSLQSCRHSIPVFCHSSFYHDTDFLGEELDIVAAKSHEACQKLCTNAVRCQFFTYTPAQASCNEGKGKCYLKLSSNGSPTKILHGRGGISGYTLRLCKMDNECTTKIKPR
T1 sequence (P03951 388-625 limits assumed): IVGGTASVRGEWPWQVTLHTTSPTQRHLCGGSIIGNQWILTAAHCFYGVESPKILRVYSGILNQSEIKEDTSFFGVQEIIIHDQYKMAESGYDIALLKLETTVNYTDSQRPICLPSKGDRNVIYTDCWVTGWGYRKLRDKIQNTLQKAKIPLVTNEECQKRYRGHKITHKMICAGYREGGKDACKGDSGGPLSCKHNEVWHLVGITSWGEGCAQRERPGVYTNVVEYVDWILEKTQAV
Experiment [2] has as its target T1, Coagulation factor XI. As to the kind of experiment: Inhibition of human recombinant FXIa assessed as S-2366 hydrolysis.
Experiment [3] deals with T1, Coagulation factor XI. As to the kind of experiment: Inhibition of human factor XIa.
Experiment [4] addresses Coagulation factor X (Homo sapiens) (UniProt P00742). The experiment is described as follows: Inhibition of human factor Xa assessed as fold change relative to basal value.
Experiment [5] concerns the target T2, Prothrombin (Homo sapiens, UniProt P00734). The experiment is described as follows: Inhibition of thrombin in human plasma measured after 10 mins by chromogenic substrate hydrolysis assay. Format: cell-free.
Experiment [6] addresses T2, Prothrombin. As to the kind of experiment: Inhibition of thrombin in human plasma assessed as maximal efficacy measured after 10 mins by chromogenic substrate hydrolysis assay relative to control. Format: cell-free.

Sequence of Coagulation factor X (Homo sapiens) (P00742 41-179 limits assumed): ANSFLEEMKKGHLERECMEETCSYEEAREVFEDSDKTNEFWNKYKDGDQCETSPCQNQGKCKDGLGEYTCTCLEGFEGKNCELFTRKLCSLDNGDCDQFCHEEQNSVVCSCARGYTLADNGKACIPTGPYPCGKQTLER
Sequence of Coagulation factor X (Homo sapiens) (P00742 235-488 limits assumed): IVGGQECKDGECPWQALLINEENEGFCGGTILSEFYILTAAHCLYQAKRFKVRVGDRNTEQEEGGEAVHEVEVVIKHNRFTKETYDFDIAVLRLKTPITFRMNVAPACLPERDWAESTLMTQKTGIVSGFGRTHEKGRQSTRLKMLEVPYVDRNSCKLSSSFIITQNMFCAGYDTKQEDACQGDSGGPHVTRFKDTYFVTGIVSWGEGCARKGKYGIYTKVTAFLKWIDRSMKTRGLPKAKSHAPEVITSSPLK

Consider `Cc1ccc(C(=O)Nc2ccc(CP(=O)(O)O)cc2CP(=O)(O)O)cc1NC(=O)c1cccc(NC(=O)Nc2cccc(C(=O)Nc3cc(C(=O)Nc4ccc(CP(=O)(O)O)cc4CP(=O)(O)O)ccc3C)c2)c1`, for which the Activity at Coagulation factor XI [1] is 68%. Consider `O=C(O[C@@H]1[C@H](OC(=O)c2cc(OS(=O)(=O)O)cc(OS(=O)(=O)O)c2)[C@@H](OC(=O)c2cc(OS(=O)(=O)O)cc(OS(=O)(=O)O)c2)[C@H](OC(=O)c2ccc(OS(=O)(=O)O)cc2OS(=O)(=O)O)[C@@H](OC(=O)c2cc(OS(=O)(=O)O)cc(OS(=O)(=O)O)c2)[C@H]1OC(=O)c1cc(OS(=O)(=O)O)cc(OS(=O)(=O)O)c1)c1cc(OS(=O)(=O)O)cc(OS(=O)(=O)O)c1`, for which, on Coagulation factor XI [2], the half-inhibitory concentration (IC50) is 280 nM. In turn, `COc1cc2oc(C)c(C(=O)O)c2cc1OS(=O)(=O)O` displayed a half-maximal inhibitory concentration (IC50) against Coagulation factor XI [3] of more than 2000 nM. On to `O=C(Nc1ccc(C(=O)Nc2ccc(C(=O)Nc3ccc(S(=O)(=O)O)c4cc(S(=O)(=O)O)cc(S(=O)(=O)O)c34)cc2)cc1)Nc1ccc(C(=O)Nc2ccc(C(=O)Nc3ccc(S(=O)(=O)O)c4cc(S(=O)(=O)O)cc(S(=O)(=O)O)c34)cc2)cc1`, for which, on Coagulation factor XI [1], the Activity is more than 90%. In the case of `O=S(=O)(O)Oc1cc2c(c(OS(=O)(=O)O)c1)C[C@@H](OS(=O)(=O)O)[C@@H](c1ccc(OS(=O)(=O)O)c(OS(=O)(=O)O)c1)O2`, the fold change (FC) in experiment [4] amounted to 10.8. Regarding `COc1cc(CCCS(=O)(=O)O)ccc1O[C@H](Cc1cccc(OC)c1O)CS(=O)(=O)O`, on Coagulation factor XI [3], 150 nM corresponded to half-maximal inhibition (IC50).

Regarding `O=S(=O)(O)Oc1cc2c(c(OS(=O)(=O)O)c1)C[C@H](OS(=O)(=O)O)[C@@H](c1ccc(OS(=O)(=O)O)c(OS(=O)(=O)O)c1)O2`, the fold change (FC) in experiment [4] turned out to be 20.8. Molecule `O=c1oc2cc(OCCCCn3cc(COc4ccc(-c5oc(=O)c6c(Cl)cc(Cl)cc6c5-c5ccccc5)cc4)nn3)ccc2c(-c2ccccc2)c1-c1ccc(OS(=O)(=O)O)cc1` gave a concentration for half-maximal inhibition (IC50) against Prothrombin [5] of 180 nM. Further, at Prothrombin [6], the Efficacy came out at 47%.

As for `COc1cc2oc(C)c(C(=O)OC(C)(C)C)c2cc1OCc1oc2cc(OC)c(OS(=O)(=O)O)cc2c1C(=O)OC(C)(C)C`, inhibition at Coagulation factor XI [3] was half-maximal at 7300 nM (IC50).
